Literature values, collected in patent US20260294906A1, “TREATING PSORIASIS USING A SMALL MOLECULE INHIBITOR OF TUMOR NECROSIS FACTOR ALPHA” (SANOFI, priority 2023, published 2026).

What was measured:
TNFR1 = conditions: Jurkat cells; sTNFα pre-incubated with the substance, compared with sTNFα alone; cited from earlier work
sTNFα = conditions: O'Connell et al.; cited from earlier work

Row | Molecule | TNFR1 signaling (RIP-1 ubiquitination and NF-κB phosphorylation) (TNFR1) | stabilization of the asymmetric sTNFα trimer (sTNFα)
1 | Cc1ccc(C)c(Cn2c(C(O)c3ccncc3)nc3ccc(-c4cnn(C)c4)cc32)c1 (stereo not drawn) [UCB-9260, reference compound] | impaired | stabilizes the asymmetric sTNFα trimer
2 | etanercept | impaired | –
